Source: patent US4981788A, “Novel acetylpolyamine amidohydrolase” (Kyowa Hakko Kogyo Co., Ltd., priority 1987, dated 1991)

Tests used:
[1] = molecular target: T1, acetylpolyamine amidohydrolase (the present enzyme, partially purified product) (Mycoplana ramosa, UniProt Q48935); test: Enzyme activity on acetylpolyamine substrates, partially purified product (substrate specificity, optimum pH/temperature, Km); format: biochemical, Mycoplana bullata; conditions: for Optimum pH: pH 6 to 10, bis-Tris propane buffer, per substrate; for Relative activity, the present enzyme: pH 7.0, activity against acetylputrescine defined as 100
T1 construct: novel acetylpolyamine amidohydrolase of the present invention accumulated within the grown cells; made in house; host or cells: Mycoplana (natural producer; cells grown in culture)
T1 sequence (Q48935 1-341): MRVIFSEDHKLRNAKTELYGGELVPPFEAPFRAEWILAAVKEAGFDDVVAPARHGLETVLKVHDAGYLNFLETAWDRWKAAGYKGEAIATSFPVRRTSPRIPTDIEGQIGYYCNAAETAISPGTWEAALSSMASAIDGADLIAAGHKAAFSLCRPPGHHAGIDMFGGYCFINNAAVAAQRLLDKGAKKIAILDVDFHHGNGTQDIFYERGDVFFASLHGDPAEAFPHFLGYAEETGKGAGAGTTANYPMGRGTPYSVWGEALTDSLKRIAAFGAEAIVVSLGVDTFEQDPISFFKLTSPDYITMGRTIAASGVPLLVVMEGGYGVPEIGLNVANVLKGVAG
Description: Activity of the present enzyme (partially purified products) is measured according to the following procedure. That is, 0.1 ml of an enzyme solution is added to a reagent solution consisting of 1.5 ml of 0.1 M phosphate buffer (pH 7.0), 0.05 ml of 50 mM acetylpolyamine, 0.4 U of putrescine oxidase (when acetylputrescine, acetylcadaverine or acetylspermidine is used as substrate) or polyamine oxidase (when acetylspermidine or acetylspermine is used as substrate), 0.5 ml of 2.4 mM 4-aminoantipyrine, 0.5 ml of 42 mM phenol and 20 U of peroxidase. The mixture is incubated at 37° C., and the absorbance of quinoneimine pigment formed at 500 nm is measured.
In terms of the enzyme activity, the amount of enzyme that can hydrolyze 1 μmole of a substrate in one minute is defined as one unit (1 U).
The relative activities of acetylpolyamine amidohydrolases against various type of acetylpolyamine, defining the activities against acetylputrescine as 100 under a condition of pH 7.0, are as shown in Table 1 below.
Enzyme activity was measured at different pH levels ranging from 6 to 10 by using bis-Tris propane buffer solutions. The optimum pH was 9 for acetylputrescine and acetylcadaverine, and 8 for N^1 -acetylspermidine, N^8 -acetylspermidine and acetylspermine, as shown in FIG. 1.
The optimum working temperature for the present enzyme was about 50° C., when the relative activity was determined, using acetylputrescine as substrate, as shown in FIG. 4. The optimum temperatures for the other acetylpolyamine amidohydrolases were 30° to 40° C. This clearly distinguishes the present enzyme from the known enzymes.
Km values of the present enzyme and the other known enzymes for various types of acetylpolyamine at pH 7.0 were determined from the Line weaver-Burk plot [refer to J. Am. Chem. Soc., 56, 658 (1934)].

[2] = molecular target: T2, acetylpolyamine amidohydrolase (the present enzyme, product purified to homogeneity) (Mycoplana ramosa, UniProt Q48935); test: Enzyme activity on acetylpolyamine substrates, product purified to homogeneity (Method 2 / Method 3); format: biochemical, Mycoplana bullata; conditions: for Vmax, Mycoplana bullata enzyme: pH 9.0; for Relative activity, Mycoplana bullata enzyme: phosphate buffer pH 9.0, substrate 0.833 mM, acetylputrescine = 100; for Optimum pH: 37° C., phosphate and borate buffers, per substrate
T2 construct: novel acetylpolyamine amidohydrolase of the present invention accumulated within the grown cells; made in house; host or cells: Mycoplana (natural producer)
T2 sequence (Q48935 1-341): T1 sequence (Q48935 1-341)
Source text: [Method 2] (Assay when acetylputrescine, acetylcadaverine, N^1 -acetylspermidine and N^8 -acetylspermidine are used as substrate:)
The acetylpolyamine can be hydrolyzed by the acetylpolyamine amidohydrolase, as described in [Method 1], and the corresponding free polyamine thus formed is then oxidized by putrescine oxidase. Putrescine oxidase derived from Micrococcus rubens is known to have an activity upon putrescine, cadaverine and spermidine [Adachi, et al., Agric. Biol. Chem, 30, 1202 (1966)]. […] The actual analytical procedure is as described below.
The above reagents, (b) through (h), were put in a cuvette (d: 1.0 cm) and the mixture was preincubated at 37° C. for 2 minutes. The substrate solution (a) was then added, and the resulting mixture was incubated at 37° C. Absorbance at 500 nm was measured over a period of 3 to 5 minutes, and the change in absorbance per minute (ΔODsample) was determined from the linear portion of the plotted curve. For control, the same procedure as above was carried out, using distilled water as reference.
One unit of acetylpolyamine amidohydrolase is defined as its amount necessary to hydrolyze 1 μmole of acetylputrescine at 37° C. for one minute (or the amount necessary to form 0.5 μmole of quinoneimine pigment formed in the method for measuring the enzyme activity described above).
[Method 3] (Assay when acetylspermine is used as substrate:)
Acetylspermine is hydrolyzed by the action of acetylpolyamine amidohydrolase into free form of spermine. The free form of spermine can be oxidized by a polyamine oxidase derived from Aspergillus terreus to produce hydrogen peroxide. Two molar equivalents of hydrogen peroxide is formed from one molar equivalent of spermine. Thus, the enzyme activity can be measured by quantitative determination of the hydrogen peroxide according to the method described above. However, since the above polyamine oxidase also acts upon acetylspermine, it is impossible to exactly measure the activity of acetylpolyamine amidohydrolase by the standard assay. […] The actual procedure is described below.
Reagents (b) through (d) given in item (1) were put in a test tube and the mixture was preincubated at 37° C. for 2 minutes. The substrate solution (a) was then added, the resulting mixture was incubated at 37° C. for 10 minutes, and the reaction was stopped by addition of the termination (e). A sample solution (100 μl) was taken from the reaction mixture and subjected to HPLC as described above to separate free form of spermine from acetylspermine. Generally, acetylspermine is eluted at a position of 38 minutes after the start of elution and free form of spermine at a position of 41 minutes after the start of elution. A sample solution (200 μl), taken from the eluate containing free form of spermine, was mixed in a cuvette with reagents (a) through (e) given in item (2) above, the mixture was incubated at 37° C. for 10 minutes, and the absorbance at 755 nm was measured. For control, the same procedure as above was carried out using 200 μl of Elunt A in place of the sample solution, as reference.
The concentration of free form of spermine in the reaction mixture can be determined from a calibration curve previously prepared on the basis of aqueous soluitons of free form of spermine with different concentrations. If the concentration of free form of spermine contained in 150 μl of the reaction mixture is taken as P (mM), then the potency (A) for 1 ml of the enzyme solution can be expressed by the following equation: […]
The activities upon acetylputrescine, acetylcadaverine, N^1 -acetylspermidine and N^8 -acetylspermidine were measured by [Method 2] in a phosphate buffer (pH 9.0) at a substrate concentration of 0.833 mM, and the activity upon acetyl-spermine was measured by [Method 3] under the same conditions. […] Km values, determined from the Lineweaver-Burk plot, are also listed in the same table. […]

[3] = system: E2: Enzyme derived from Arthrobacter sp. (acetylpolyamine amidohydrolase); conditions: pH 7.0, cited from earlier work; for Relative activity, E2: activity against acetylputrescine defined as 100
[4] = system: E3: Enzyme derived from Micrococcus luteus (acetylpolyamine amidohydrolase); conditions: pH 7.0, cited from earlier work; for Relative activity, E3: activity against acetylputrescine defined as 100
[5] = system: E1: Enzyme derived from Streptomyces avellaneus (acetylpolyamine amidohydrolase); conditions: cited from earlier work

Structure (SMILES)	Optimum pH [1]	Relative activity, the present enzyme [1] [%]	Substrate concentration at which substrate inhibition was observed [2] [mM]	Vmax, Mycoplana bullata enzyme [2] [u/mg]	Relative activity, Mycoplana bullata enzyme [2] [%]	Relative activity, E2 [3] [%]	Km [3] [µM]	Relative activity, E3 [4] [%]	Km ([1]; pH 7.0, Lineweaver-Burk plot) [µM]	Optimum pH [2]	Km ([2]; pH 9.0, Lineweaver-Burk plot, read-out: Km, Mycoplana bullata enzyme) [µM]	Relative activity, E1 ([5]; pH 7.0, activity against acetylputrescine defined as 100) [%]	Relative activity, St. avellaneus enzyme ([5]; reported reference data in Table 5, acetylputrescine = 100) [%]	Km [4] [µM]
CC(=O)NCCCCCN [Acetylcadaverine]	9	71	≥ 1	18.8	72	45	1600	12.5						
CC(=O)NCCCNCCCCNCCCN [Acetylspermine]	8	24	> 1.6	7.7	37	3		2.1	160	10	290	0.4	0.4	
CC(=O)NCCCNCCCCN [N^1 -Acetylspermidine]	8	108	≥ 1	20.5	61			3.5		9				
CC(=O)NCCCCNCCCN [N^8 -Acetylspermidine]	8	51	≥ 1	19.8	60			85.1		9				380
